Measured values: ChEMBL document CHEMBL2440060, “Identification of a Novel and Selective Series of Itk Inhibitors via a Template-Hopping Strategy” (ACS Med Chem Lett, 2013)

How the values were obtained:
[1] = biological target: T1, Tyrosine-protein kinase ITK/TSK (Homo sapiens, UniProt Q08881); assay: Inhibition of recombinant human FLAG-tagged ITK using biotinylated GST-SAM68 as substrate after 30 mins
T1 sequence (Q08881 whole entry): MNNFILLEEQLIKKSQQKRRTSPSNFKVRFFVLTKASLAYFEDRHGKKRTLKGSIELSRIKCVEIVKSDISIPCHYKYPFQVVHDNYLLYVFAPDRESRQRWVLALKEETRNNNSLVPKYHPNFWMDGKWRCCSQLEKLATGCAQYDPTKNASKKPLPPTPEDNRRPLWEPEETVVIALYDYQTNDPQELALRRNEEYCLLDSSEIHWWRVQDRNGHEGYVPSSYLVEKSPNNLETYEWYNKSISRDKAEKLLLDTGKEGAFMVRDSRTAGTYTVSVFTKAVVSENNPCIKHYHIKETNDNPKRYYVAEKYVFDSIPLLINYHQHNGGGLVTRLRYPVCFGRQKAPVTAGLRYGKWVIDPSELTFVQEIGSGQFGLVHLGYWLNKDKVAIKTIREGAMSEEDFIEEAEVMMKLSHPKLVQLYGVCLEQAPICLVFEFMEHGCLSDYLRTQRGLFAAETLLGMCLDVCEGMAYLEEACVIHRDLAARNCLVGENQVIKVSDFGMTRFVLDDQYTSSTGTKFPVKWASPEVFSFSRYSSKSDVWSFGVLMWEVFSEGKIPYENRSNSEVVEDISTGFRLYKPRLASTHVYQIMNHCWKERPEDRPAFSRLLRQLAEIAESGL

[2] = biological target: T2, Tyrosine-protein kinase Lck (Homo sapiens, UniProt P06239); assay: Inhibition of LCK (unknown origin) using tamra-p34cdc-derived peptide as substrate after 30 mins
T2 sequence (P06239 whole entry): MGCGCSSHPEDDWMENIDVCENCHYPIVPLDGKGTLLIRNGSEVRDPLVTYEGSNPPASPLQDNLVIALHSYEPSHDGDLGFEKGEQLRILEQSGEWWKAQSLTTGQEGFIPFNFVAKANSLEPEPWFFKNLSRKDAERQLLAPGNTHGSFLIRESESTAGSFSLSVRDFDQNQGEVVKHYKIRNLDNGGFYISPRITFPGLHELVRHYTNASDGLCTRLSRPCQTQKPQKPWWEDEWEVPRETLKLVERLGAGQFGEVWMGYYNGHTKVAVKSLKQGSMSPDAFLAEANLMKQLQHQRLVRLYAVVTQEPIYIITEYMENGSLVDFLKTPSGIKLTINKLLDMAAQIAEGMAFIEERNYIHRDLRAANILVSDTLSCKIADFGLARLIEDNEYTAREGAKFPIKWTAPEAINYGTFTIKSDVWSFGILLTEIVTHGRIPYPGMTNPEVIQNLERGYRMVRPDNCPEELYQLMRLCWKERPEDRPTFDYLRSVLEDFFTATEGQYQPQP

[3] = biological target: T3, Aurora kinase B (Homo sapiens, UniProt Q96GD4); assay: Inhibition of Aurora-B (unknown origin) using 5FAM-PKAtide as substrate after 120 mins
T3 sequence (Q96GD4 whole entry): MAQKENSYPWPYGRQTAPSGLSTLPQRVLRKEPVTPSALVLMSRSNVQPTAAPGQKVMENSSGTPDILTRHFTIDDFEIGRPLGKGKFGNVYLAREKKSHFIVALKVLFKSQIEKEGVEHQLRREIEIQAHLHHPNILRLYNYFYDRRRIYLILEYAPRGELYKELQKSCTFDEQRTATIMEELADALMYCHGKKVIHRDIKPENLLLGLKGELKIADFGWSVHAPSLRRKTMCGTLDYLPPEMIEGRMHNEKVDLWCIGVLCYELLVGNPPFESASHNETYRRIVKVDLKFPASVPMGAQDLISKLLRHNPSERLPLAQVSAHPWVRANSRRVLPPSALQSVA

[4] = biological target: T1, Tyrosine-protein kinase ITK/TSK; assay: Inhibition of ITK (unknown origin)
[5] = biological target: T3, Aurora kinase B; assay: Inhibition of Aurora-B (unknown origin)
[6] = biological target: T2, Tyrosine-protein kinase Lck; assay: Inhibition of LCK (unknown origin)
[7] = test system: PBMC; assay: Inhibition of cytostim-induced IFNgamma production in human PBMC treated 1 hr before cytostim stimulation measured after 18 hrs by MSD assay; format: functional, cell-based
[8] = biological target: Leucine-rich repeat serine/threonine-protein kinase 2 (Homo sapiens, UniProt Q5S007); assay: Inhibition of LRRK2 (unknown origin)
Sequence of Leucine-rich repeat serine/threonine-protein kinase 2 (Q5S007 whole entry): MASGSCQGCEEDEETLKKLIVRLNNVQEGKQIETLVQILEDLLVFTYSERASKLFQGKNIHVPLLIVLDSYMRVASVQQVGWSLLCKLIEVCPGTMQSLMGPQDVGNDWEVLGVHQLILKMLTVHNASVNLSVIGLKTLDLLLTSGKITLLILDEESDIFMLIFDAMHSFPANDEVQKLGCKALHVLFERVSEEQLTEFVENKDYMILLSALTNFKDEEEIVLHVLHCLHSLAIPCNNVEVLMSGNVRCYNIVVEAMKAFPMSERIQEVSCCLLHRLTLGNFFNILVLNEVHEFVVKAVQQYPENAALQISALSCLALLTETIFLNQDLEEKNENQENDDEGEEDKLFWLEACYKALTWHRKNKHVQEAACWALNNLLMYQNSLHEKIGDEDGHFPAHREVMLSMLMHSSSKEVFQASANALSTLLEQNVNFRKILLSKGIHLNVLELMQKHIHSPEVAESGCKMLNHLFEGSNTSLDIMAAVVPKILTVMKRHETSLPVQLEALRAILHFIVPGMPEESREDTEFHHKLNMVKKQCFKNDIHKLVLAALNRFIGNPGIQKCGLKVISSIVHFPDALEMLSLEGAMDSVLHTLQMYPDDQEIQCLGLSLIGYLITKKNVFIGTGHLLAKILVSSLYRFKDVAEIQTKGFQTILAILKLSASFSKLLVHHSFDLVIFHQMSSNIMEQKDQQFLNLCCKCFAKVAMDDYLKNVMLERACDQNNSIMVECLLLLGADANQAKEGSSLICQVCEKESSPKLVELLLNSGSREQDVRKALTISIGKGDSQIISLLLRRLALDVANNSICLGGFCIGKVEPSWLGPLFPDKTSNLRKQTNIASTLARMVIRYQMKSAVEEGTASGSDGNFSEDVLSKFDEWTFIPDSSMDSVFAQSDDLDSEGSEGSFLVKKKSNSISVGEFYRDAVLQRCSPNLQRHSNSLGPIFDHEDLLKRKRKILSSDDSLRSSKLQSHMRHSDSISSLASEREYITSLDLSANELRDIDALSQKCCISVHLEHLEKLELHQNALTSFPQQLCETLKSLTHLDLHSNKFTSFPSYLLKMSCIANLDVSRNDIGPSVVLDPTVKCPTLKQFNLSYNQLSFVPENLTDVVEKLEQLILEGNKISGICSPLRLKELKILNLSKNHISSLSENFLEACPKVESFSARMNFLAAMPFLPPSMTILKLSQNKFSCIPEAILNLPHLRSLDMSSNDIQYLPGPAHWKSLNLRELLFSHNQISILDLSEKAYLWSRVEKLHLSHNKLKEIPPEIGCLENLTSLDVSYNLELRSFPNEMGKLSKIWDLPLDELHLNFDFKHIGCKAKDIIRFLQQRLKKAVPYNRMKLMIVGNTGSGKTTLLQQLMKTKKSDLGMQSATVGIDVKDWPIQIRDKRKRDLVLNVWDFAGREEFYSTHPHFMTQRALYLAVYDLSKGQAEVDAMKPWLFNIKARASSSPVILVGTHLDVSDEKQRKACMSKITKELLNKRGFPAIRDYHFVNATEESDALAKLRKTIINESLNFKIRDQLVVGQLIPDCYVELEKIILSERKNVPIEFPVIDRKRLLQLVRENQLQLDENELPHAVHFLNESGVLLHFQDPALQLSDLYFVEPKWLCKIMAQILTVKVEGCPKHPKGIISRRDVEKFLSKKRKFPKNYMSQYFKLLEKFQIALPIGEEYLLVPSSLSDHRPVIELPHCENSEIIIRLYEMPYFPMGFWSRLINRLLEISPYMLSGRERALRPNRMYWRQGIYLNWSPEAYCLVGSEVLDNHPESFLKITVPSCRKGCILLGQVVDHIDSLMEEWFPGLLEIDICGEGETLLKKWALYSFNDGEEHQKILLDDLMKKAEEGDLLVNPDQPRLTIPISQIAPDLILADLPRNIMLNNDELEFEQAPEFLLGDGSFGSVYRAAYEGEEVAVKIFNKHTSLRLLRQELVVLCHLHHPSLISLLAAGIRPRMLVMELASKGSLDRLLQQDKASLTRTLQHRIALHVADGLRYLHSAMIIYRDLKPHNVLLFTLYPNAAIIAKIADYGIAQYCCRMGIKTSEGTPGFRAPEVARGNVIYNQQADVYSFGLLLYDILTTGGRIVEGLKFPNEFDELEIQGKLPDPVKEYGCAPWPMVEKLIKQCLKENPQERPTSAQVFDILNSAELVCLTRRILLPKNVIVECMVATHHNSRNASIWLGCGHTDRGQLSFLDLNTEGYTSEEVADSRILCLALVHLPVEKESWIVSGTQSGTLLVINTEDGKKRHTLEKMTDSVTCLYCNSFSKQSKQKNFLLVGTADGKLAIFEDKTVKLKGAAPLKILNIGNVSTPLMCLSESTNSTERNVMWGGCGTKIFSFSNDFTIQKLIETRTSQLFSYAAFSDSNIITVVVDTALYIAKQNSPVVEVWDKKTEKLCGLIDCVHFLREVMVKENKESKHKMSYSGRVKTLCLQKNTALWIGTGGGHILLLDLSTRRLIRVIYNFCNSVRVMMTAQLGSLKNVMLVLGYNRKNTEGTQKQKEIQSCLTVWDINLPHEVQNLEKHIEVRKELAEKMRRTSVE

[9] = biological target: T4, Interleukin-1 receptor-associated kinase 4 (Homo sapiens, UniProt Q9NWZ3); assay: Inhibition of IRAK4 (unknown origin)
T4 sequence (Q9NWZ3 whole entry): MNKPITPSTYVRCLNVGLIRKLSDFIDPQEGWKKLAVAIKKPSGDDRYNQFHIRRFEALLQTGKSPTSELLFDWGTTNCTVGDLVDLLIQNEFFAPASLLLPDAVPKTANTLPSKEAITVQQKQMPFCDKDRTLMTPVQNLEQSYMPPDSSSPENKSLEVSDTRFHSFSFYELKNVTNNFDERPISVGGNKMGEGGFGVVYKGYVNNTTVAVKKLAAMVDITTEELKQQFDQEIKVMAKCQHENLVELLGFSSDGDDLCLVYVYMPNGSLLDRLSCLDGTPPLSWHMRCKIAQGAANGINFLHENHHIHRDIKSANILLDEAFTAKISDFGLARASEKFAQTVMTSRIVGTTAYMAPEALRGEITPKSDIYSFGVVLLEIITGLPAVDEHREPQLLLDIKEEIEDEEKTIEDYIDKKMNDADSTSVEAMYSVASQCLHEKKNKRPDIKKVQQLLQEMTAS

[10] = biological target: Tyrosine-protein kinase BTK (Homo sapiens, UniProt Q06187); assay: Inhibition of Btk (unknown origin)
[11] = biological target: T5, Tyrosine-protein kinase TXK (Homo sapiens, UniProt P42681); assay: Inhibition of TXK (unknown origin)
T5 sequence (P42681 whole entry): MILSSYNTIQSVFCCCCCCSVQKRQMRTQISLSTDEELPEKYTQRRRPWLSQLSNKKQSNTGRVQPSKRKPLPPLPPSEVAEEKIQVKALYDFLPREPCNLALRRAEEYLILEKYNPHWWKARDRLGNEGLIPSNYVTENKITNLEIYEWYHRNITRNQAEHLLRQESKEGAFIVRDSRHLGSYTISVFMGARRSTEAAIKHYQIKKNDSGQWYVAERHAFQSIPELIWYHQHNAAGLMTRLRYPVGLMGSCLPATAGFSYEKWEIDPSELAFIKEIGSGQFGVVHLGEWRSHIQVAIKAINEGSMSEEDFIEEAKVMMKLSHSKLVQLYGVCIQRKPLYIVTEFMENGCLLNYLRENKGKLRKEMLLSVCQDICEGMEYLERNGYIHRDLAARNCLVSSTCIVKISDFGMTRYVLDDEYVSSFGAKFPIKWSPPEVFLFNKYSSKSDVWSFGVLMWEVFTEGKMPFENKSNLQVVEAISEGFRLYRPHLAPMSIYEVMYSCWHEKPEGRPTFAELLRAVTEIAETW

[12] = biological target: Insulin receptor (Homo sapiens, UniProt P06213); assay: Inhibition of IR (unknown origin)
Sequence of Insulin receptor (P06213 28-758 limits assumed): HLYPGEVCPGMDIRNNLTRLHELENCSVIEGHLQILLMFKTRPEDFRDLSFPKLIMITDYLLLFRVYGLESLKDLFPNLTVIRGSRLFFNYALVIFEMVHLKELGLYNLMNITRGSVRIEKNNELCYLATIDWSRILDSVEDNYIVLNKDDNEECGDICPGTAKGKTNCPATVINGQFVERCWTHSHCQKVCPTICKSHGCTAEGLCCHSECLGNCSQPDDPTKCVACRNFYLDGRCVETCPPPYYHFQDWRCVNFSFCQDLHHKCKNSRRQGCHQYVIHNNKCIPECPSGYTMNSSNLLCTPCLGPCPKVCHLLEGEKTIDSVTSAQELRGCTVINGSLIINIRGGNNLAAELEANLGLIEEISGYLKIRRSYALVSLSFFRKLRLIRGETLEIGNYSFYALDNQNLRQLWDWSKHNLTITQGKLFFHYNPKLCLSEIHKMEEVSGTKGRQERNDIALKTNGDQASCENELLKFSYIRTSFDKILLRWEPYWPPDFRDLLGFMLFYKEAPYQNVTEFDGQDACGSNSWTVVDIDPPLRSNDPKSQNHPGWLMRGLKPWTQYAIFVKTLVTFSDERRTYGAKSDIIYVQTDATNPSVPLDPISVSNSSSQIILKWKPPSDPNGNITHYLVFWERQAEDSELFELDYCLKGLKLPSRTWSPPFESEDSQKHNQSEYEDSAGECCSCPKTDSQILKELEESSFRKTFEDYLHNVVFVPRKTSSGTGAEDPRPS
Sequence of Insulin receptor (P06213 763-1382 limits assumed): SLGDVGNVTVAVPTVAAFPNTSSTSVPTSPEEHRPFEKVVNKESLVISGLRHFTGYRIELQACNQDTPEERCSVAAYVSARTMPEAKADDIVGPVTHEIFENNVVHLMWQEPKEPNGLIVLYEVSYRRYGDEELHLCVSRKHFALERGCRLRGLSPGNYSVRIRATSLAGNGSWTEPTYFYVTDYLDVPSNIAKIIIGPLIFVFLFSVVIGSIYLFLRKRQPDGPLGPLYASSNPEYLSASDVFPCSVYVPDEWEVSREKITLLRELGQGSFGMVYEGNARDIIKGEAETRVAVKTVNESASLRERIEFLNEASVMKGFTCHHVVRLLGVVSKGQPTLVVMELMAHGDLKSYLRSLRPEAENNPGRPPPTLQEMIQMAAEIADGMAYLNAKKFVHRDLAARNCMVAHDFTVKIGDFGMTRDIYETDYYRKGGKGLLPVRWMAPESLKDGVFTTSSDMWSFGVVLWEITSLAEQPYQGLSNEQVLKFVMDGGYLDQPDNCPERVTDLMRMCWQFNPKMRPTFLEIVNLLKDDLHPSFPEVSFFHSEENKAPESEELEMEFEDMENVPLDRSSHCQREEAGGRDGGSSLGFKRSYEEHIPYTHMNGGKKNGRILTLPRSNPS

[13] = biological target: Epidermal growth factor receptor (Homo sapiens, UniProt P00533); assay: Inhibition of EGFR (unknown origin)
[14] = biological target: T6, Tyrosine-protein kinase Tec (Homo sapiens, UniProt P42680); assay: Inhibition of Tec (unknown origin)
T6 sequence (P42680 whole entry): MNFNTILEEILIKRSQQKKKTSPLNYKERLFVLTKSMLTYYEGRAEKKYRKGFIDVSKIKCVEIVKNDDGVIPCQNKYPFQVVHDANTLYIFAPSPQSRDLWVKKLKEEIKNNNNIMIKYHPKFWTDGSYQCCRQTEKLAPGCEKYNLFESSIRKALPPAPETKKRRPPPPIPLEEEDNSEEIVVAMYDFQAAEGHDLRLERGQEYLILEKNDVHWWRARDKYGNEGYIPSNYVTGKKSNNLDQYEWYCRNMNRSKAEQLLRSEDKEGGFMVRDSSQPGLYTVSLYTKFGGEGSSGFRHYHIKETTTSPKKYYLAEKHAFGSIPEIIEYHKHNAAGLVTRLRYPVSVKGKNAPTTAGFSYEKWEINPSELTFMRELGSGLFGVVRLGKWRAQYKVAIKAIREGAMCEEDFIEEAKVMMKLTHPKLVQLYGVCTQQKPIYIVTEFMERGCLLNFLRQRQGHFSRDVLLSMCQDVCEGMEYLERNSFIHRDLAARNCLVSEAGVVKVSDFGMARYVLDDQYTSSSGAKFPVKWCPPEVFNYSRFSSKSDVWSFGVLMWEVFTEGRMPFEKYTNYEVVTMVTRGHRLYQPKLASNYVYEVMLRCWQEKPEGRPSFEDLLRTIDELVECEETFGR

[15] = biological target: T7, Cytoplasmic tyrosine-protein kinase BMX (Homo sapiens, UniProt P51813); assay: Inhibition of Bmx (unknown origin)
T7 sequence (P51813 whole entry): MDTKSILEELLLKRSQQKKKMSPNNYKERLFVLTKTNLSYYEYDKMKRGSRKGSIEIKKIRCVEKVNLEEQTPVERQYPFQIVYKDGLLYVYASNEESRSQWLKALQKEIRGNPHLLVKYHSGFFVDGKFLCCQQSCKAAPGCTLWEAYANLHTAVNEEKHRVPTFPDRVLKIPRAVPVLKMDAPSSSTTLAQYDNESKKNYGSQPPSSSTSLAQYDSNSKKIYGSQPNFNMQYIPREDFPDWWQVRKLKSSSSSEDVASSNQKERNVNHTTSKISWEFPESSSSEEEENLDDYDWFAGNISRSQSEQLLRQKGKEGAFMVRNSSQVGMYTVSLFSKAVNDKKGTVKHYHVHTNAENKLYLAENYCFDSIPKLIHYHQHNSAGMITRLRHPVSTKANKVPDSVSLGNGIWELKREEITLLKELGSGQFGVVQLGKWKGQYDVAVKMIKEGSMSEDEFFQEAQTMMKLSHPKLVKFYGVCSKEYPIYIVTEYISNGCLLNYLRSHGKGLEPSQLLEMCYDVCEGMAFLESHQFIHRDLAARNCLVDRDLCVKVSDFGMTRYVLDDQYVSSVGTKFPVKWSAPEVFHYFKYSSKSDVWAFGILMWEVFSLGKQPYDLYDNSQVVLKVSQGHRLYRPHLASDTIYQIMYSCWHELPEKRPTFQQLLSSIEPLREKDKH

[16] = biological target: Proto-oncogene tyrosine-protein kinase Src (Homo sapiens, UniProt P12931); assay: Inhibition of Src (unknown origin)
[17] = biological target: Calcium/calmodulin-dependent protein kinase kinase 2 (Homo sapiens, UniProt Q96RR4); assay: Inhibition of CAMKK2 (unknown origin)

| SMILES | Ki [1] | Ki [2] | Ki [3] | other results |
| --- | --- | --- | --- | --- |
| COc1ccc2nc(Nc3cc(Cc4ccccc4)nc(N[C@H]4CC[C@H](O)CC4)n3)sc2n1 | 0.2 nM | 79.4 nM | 316 nM | – |
| Cc1csc(Nc2cc(Cc3ccccc3)nc(N[C@H]3CC[C@H](O)CC3)n2)n1 | 158 nM | 3160 nM | > 20000 nM | – |
| O[C@H]1CC[C@H](Nc2nc(Nc3ncc(Cc4ccccc4)s3)cc(C(F)(F)c3ccc(F)cc3)n2)CC1 | 63.1 nM | 100 nM | 5.01 nM | – |
| O[C@H]1CC[C@H](Nc2nc(Nc3ccc(Oc4ccc(F)cc4)cn3)cc(C(F)(F)c3ccc(F)cc3)n2)CC1 | 501 nM | 501 nM | 5010 nM | – |
| O[C@H]1CC[C@H](Nc2nc(Nc3cc4ccccc4cn3)cc(C(F)(F)c3ccc(F)cc3)n2)CC1 | 6.31 nM | 100 nM | 79.4 nM | – |
| O[C@H]1CC[C@H](Nc2nc(Cc3ccccc3)cc(Nc3nc4ccccc4s3)n2)CC1 | 1 nM | 316 nM | 398 nM | – |
| COc1ccc2nc(Nc3cc(C(F)(F)c4ccc(F)cc4)nc(N[C@H]4CC[C@H](O)CC4)n3)sc2n1 | 15.8 nM | 200 nM | > 20000 nM | – |
| CS(=O)(=O)N1CCOC(CNc2nc(Cc3ccccc3)cc(Nc3cc(-c4ccco4)n[nH]3)n2)C1 (stereo not drawn) | – | – | – | Ki [4]: 6.31 nM; Ki [5]: 316 nM; Ki [6]: 501 nM |
| Cc1cc2nc(Nc3cc(Cc4ccccc4)nc(N[C@H]4CC[C@H](O)CC4)n3)sc2cc1C | > 10000 nM | > 25100 nM | 20000 nM | – |
| NC(=O)C1CCN1c1nc(Cc2ccccc2)cc(Nc2cc(C3CCC3)n[nH]2)n1 (stereo not drawn) | – | – | – | Ki [4]: 15.8 nM; Ki [5]: 79.4 nM; Ki [6]: 501 nM |
| N#Cc1ccc2nc(Nc3cc(Cc4ccccc4)nc(N[C@H]4CC[C@H](O)CC4)n3)sc2c1 | 0.251 nM | 63.1 nM | 79.4 nM | – |
| O[C@H]1CC[C@H](Nc2nc(Nc3n[nH]c4ccccc34)cc(C(F)(F)c3ccc(F)cc3)n2)CC1 | 794 nM | 15800 nM | 631 nM | – |
| COc1ccc2nc(Nc3cc(C(F)(F)c4ccc(F)cc4)nc(N[C@H]4CC[C@H](O)CC4)n3)sc2c1 | 20 nM | 251 nM | 2510 nM | – |
| COc1ccc2nc(Nc3cc(C(F)(F)c4ccc(F)cc4)nc(N4CCC[C@H]4C(N)=O)n3)sc2c1 | 3980 nM | 2510 nM | > 20000 nM | – |
| COc1ccc2nc(Nc3cc(Cc4ccccc4)nc(N[C@H]4CC[C@H](O)CC4)n3)sc2c1 | 3.98 nM | 126 nM | 501 nM | IC50 [7]: 25.1 nM |
| NC(=O)[C@@H]1CCCN1c1nc(Nc2ncc(Cc3ccccc3)s2)cc(C(F)(F)c2ccc(F)cc2)n1 | > 10000 nM | 316 nM | 3160 nM | – |
| CCc1ccc2nc(Nc3cc(Cc4ccccc4)nc(N[C@H]4CC[C@H](O)CC4)n3)sc2n1 | 1.58 nM | 100 nM | 63.1 nM | – |
| O[C@H]1CC[C@H](Nc2nc(Cc3ccccc3)cc(Nc3nc4cccnc4s3)n2)CC1 | 0.251 nM | 100 nM | 100 nM | – |
| O[C@H]1CC[C@H](Nc2nc(Cc3ccccc3)cc(Nc3nc4ccc(C(F)(F)F)cc4s3)n2)CC1 | 12.6 nM | 50.1 nM | 251 nM | – |
| O[C@H]1CC[C@H](Nc2nc(Cc3ccccc3)cc(Nc3nc4ccc(Cl)cc4s3)n2)CC1 | 0.316 nM | 79.4 nM | 251 nM | – |
| CCc1ccc2nc(Nc3cc(Cc4ccccc4)nc(N[C@H]4CC[C@H](O)CC4)n3)sc2c1 | 0.631 nM | 100 nM | 398 nM | IC50 [8]: 398 nM; IC50 [9]: 3.98 nM; IC50 [10]: 316 nM; IC50 [11]: 79.4 nM; IC50 [12]: 158 nM; IC50 [7]: 50.1 nM; IC50 [13]: 631 nM; IC50 [5]: 398 nM; IC50 [14]: 251 nM; IC50 [15]: 158 nM; IC50 [16]: 39.8 nM; IC50 [6]: 126 nM; IC50 [17]: 200 nM |
| Cc1ccc2nc(Nc3cc(Cc4ccccc4)nc(N[C@H]4CC[C@H](O)CC4)n3)sc2c1 | 0.398 nM | 251 nM | 316 nM | – |
| Cc1cnc(Nc2cc(Cc3ccccc3)nc(N[C@H]3CC[C@H](O)CC3)n2)s1 | 2 nM | 20 nM | 0.501 nM | – |
